Results as given in paper PMC5855801, “Benzothiophenone Derivatives Targeting Mutant Forms of Estrogen Receptor-α in Hormone-Resistant Breast Cancers” (International Journal of Molecular Sciences, 2018).
pIC50: −log10 of the molar value.

Tests used:
Assay type in all cases: cell-based, human
ZR75-1 cells = assay: Presto Blue cell viability assay, ZR75-1; conditions: ZR75-1, 96 h, two-fold dilution starting at 50 µM
Experimental: (§1) The Presto Blue cell viability assay was used to assess the growth inhibitory potential of VPC-16606 on ERα^+ T47D, MCF7, ZR75-1 and TamR3 cells. They were treated for 96 h with a two-fold dilution range of the compound starting at 50 µM.
(§2) Cell viability was determined using the Presto Blue cell viability assay (Thermo Fisher Scientific, Waltham, MA, USA). Cells were seeded in clear bottom black-walled 96-well plates at a density of 5 × 10^3 cells/well in 100 μL of their respective media. On the following day, the cells were treated with test compounds (0.001–22.5 μM) in the presence of 1 nM E2 and incubated at 37 °C. After 96 h, 30 μL of Presto Blue reagent was added and incubated for 10 min at 37 °C. The fluorescent signal from viable cells was measured at 590 nm.

[1] = test system: TamR3 cells (tamoxifen-resistant MCF7-derived); assay: Presto Blue cell viability assay, TamR3; conditions: TamR3, 96 h, two-fold dilution starting at 50 µM
Experimental: as §1, §2

[2] = test system: pS2, PR, Cyclin D1 and CDC2 proteins; assay: Western blotting in MCF7 cells; conditions: MCF7, 24 h, effect at higher doses
Experimental: Serum-starved MCF7 and TamR3 cells were seeded onto a six-well plate at a density of 6 × 10^5 cells/well and treated the following day with VPC-16606 in the presence of 1 nM E2. One micromolar OHT was used as the positive control. After 24 h, cells were lysed in 1× radioimmunoprecipitation assay (RIPA) buffer. Twenty five micrograms of protein were loaded into SDS-PAGE gels and transferred to PVDF membranes. Membranes were incubated with pS2, PR Cyclin D1 and CDC2 antibodies or control α-actin antibody. Bound antibodies were detected using HRP-conjugated secondary antibodies. Chemiluminescence was detected with an Amersham ECL detection kit (GE Healthcare Life Sciences, Chicago, IL, USA), and bands were visualised using the G:BOX imager (Syngene, Cambridge, UK).

[3] = test system: ERα binding to the pS2 enhancer; assay: Chromatin immunoprecipitation (ChIP) in MCF7 cells; conditions: MCF7, 6 μM, 24 h, 1 nM E2, compared to E2 alone
Experimental: To test this hypothesis, we performed chromatin immunoprecipitation (ChIP) assays in MCF7 cells. The cells were treated for 24 h with vehicle and E2 either alone or in combination with VPC-16606.
E2-deprived MCF7 cells (1 × 10^7 cells per 10 cm plate) were treated for 24 h with DMSO alone, DMSO + E2 or compound + E2. One percent formaldehyde was added for 10 min at room temperature to perform DNA-protein crosslinking and quenched by treatment with 125 mM glycine for 5 min. Cell lysates sonicated with Sonic Dismembrator 550 instrument (Thermo Fisher Scientific, Waltham, MA, USA) to yield DNA fragments of 200–1000 bp in size. Lysates (from 3.3 × 10^6 cells) were immunoprecipitated with […] of anti-ERα antibody or […] of rabbit isotype control IgG (Santa Cruz Biotechnology, Dallas, TX, USA) using the EZ-ChIP chromatin immunoprecipitation kit (Millipore, Billerica, MA, USA). Bound DNA was quantified by qPCR (SYBR Green master mix, Invitrogen, Carlsbad, CA, USA) using the following primer sets: pS2 enhancer, forward 5′-[…]-3′ and reverse 5′-AGGGCGTGACACCAGGAAA-3′; GAPDH promoter, forward 5′-[…]-3′ and reverse 5′-TCGAACAGGAGCAGA GAGCGA-3′. The qPCR results are presented as fold enrichment of PCR amplification over control IgG antibody and normalized based on the total input (no precipitated chromatin). Primers for the GAPDH promoter were used as a negative control.

[4] = test system: mutant ERα (L536Q, Y537S, Y537C, Y537N, D538G, Y537S/D538G, S463P/Y537N); assay: Luciferase reporter assay with mutant ERα in transfected MDA-MB-231 cells; conditions: all seven mutant forms, two-fold dilution starting at 50 µM, read-out: IC50 against constitutively-active mutant forms of ERα (luciferase)
Experimental: Figure 5 Predicted MD simulations and experimental effect of VPC-16606 on mutant forms of ERα. […] (C) E2 responsiveness of the synthesized mutants. (D) pcDNA3.1 plasmid encoding either the full-length WT or mutant forms of ERα was transfected into MDA-MB-231 cells along with the 3X-ERE-TATA luciferase reporter plasmid. The cells were treated with a two-fold dilution of VPC-16606 starting at 50 µM. […] Data points are expressed as the percentage of luciferase activity relative to DMSO control. Data were fitted using the log10 of concentration of the inhibitors vs. the response with GraphPad Prism 6. Error bars indicate the standard error of the mean (SEM) for 3 independent experiments performed in triplicates.
To test this hypothesis, a site-directed mutagenesis study was initiated on WT-ERα. MDA-MB-231 cells that were transfected with plasmids encoding either WT or mutant ERα (L536Q, Y537S, Y537C, Y537N, D538G, Y537S/D538G, S463P/Y537N) along with an E2-responsive luciferase reporter plasmid and a constitutively-active Renilla reporter plasmid. The cells were treated with VPC-16606 with two-fold dilution starting at 50 µM. […] This is particularly important because they corroborate the idea that such clinically-relevant mutant forms of the receptor, which cause the receptor to be E2 independent, can be inhibited by targeting an alternative functional site on the receptor. […]

`CC(=O)N(/N=C1\Sc2c(C)cccc2C1=O)c1ccccc1Cl` [VPC-16606] was tested, and the “Cell growth (Presto Blue viability)” value (ZR75-1 cells) was “significantly reduce the growth”, the “Cell growth (Presto Blue viability)” value [1] was “significantly reduce the growth” and the “Expression of pS2, PR, Cyclin D1 and CDC2 proteins (Western blot)” value [2] was “decreased expression”. The “ERα pull down of the promoter of pS2 (ChIP)” value [3] was “significantly reduced” and the pIC50 [4] was 6.00 to 6.30.
